Laboratory results published in ChEMBL document CHEMBL1128556, “New spiropiperidines as potent and selective non-peptide tachykinin NK2 receptor antagonists” (J Med Chem, 1995).

What follows are compounds tested against T1, Neuromedin-K receptor (Cavia porcellus, UniProt P30098) (assay: The compound was tested for binding affinity against Tachykinin receptor 3 from guinea pig cerebral cortex).
T1 sequence (P30098 whole entry): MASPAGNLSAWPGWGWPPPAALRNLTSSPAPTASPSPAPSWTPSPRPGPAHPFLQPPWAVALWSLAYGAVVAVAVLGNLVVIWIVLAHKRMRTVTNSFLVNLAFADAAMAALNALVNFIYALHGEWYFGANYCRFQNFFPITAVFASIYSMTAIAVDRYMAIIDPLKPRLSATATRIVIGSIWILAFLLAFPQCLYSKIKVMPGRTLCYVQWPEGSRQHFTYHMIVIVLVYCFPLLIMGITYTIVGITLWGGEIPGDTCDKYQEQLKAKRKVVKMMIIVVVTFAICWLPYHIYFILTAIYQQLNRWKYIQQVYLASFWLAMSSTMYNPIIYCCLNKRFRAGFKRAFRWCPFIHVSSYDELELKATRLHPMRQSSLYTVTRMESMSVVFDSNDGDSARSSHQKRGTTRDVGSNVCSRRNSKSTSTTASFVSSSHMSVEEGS
Type: tissue-based
In the case of O=C1OC2(CCN(CCc3c[nH]c4ccc(F)cc34)CC2)CN1Cc1ccccc1, the Ki is reported as 79.4 µM.

What follows are compounds tested against T2, Substance-K receptor (Homo sapiens, UniProt P21452) (assay: The compound was tested for binding affinity against Tachykinin receptor 2 from human expressed in CHO cells).
T2 sequence (P21452 whole entry): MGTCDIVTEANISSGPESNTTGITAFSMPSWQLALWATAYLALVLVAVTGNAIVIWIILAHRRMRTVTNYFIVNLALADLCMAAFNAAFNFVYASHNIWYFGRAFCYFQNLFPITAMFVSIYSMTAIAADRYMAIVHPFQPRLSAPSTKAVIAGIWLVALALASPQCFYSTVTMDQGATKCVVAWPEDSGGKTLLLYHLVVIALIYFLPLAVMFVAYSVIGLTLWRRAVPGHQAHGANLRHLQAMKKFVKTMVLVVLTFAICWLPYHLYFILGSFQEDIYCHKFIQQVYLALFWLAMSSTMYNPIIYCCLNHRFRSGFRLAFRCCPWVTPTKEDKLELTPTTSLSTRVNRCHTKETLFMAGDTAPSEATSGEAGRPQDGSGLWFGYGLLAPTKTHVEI
Type: cell-based
With O=C1OC2(CCN(CCc3c[nH]c4ccc(F)cc34)CC2)CN1Cc1ccccc1 the Ki was 0.00794 µM.

The compounds below were run against T3, Substance-K receptor (Cavia porcellus, UniProt Q64077) (assay: The compound was tested for binding affinity against Tachykinin receptor 2 from guinea pig trachea).
T3 sequence (Q64077 whole entry): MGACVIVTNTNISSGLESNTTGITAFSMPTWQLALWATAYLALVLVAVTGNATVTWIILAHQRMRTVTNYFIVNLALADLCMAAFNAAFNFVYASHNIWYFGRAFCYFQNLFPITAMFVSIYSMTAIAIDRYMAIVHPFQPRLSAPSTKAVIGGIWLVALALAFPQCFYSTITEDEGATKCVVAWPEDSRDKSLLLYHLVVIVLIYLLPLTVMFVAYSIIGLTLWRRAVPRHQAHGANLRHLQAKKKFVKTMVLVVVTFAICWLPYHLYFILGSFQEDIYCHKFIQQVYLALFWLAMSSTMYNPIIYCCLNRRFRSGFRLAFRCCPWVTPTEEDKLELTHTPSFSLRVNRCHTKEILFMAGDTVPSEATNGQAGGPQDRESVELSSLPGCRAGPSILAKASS
O=C1OC2(CCN(CCc3c[nH]c4ccc(F)cc34)CC2)CN1Cc1ccccc1 gave a Ki of 0.00251 µM.

Each compound was assayed against Substance-P receptor (Cavia porcellus, UniProt P30547) (assay: The compound was tested for binding affinity against Tachykinin receptor 1 from guinea pig trachea).
Sequence of Substance-P receptor (P30547 whole entry): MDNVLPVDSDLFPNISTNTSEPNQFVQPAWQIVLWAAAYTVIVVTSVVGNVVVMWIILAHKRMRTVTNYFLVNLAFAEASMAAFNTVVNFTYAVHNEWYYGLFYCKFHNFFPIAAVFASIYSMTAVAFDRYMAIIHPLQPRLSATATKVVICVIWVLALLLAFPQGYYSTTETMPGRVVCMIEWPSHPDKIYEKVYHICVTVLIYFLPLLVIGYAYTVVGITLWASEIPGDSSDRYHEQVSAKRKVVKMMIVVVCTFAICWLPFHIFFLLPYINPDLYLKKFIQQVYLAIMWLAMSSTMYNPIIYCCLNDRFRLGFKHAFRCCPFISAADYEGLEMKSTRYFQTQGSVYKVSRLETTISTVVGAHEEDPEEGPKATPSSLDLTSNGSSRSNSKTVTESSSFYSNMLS
Work on O=C1OC2(CCN(CCc3c[nH]c4ccc(F)cc34)CC2)CN1Cc1ccccc1 yielded a Ki of over 10 µM.

Each compound was assayed against T4, Substance-K receptor (Rattus norvegicus, UniProt P16610) (assay: Binding affinity against tachykinin receptor 2 from rat colon.).
T4 sequence (P16610 whole entry): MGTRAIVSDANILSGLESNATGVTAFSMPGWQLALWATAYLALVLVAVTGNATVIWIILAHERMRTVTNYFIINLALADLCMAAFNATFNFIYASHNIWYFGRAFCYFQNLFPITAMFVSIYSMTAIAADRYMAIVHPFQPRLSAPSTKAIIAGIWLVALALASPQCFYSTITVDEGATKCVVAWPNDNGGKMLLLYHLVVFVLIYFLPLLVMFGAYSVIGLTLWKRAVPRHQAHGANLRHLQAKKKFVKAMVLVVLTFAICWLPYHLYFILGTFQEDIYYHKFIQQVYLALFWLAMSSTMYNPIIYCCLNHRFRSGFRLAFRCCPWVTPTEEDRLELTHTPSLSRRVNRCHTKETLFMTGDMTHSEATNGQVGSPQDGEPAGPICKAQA
For O=C1OC2(CCN(CCc3c[nH]c4ccc(F)cc34)CC2)CN1Cc1ccc(F)cc1F, the Ki was 0.00631 µM. For O=C1OC2(CCN(CCc3c[nH]c4ccc(F)cc34)CC2)CN1Cc1ccc(F)cc1, the Ki was 0.00398 µM. O=C1OC2(CCN(CCc3c[nH]c4ccc(F)cc34)CC2)CN1C(c1ccccc1)c1ccccc1 was tested, and the Ki was 0.02 µM. Work on COc1ccc(CN2CC3(CCN(CCc4c[nH]c5ccc(F)cc45)CC3)OC2=O)cc1 yielded a Ki of 0.00398 µM. For O=C1OC2(CCN(CCc3c[nH]c4ccc(F)cc34)CC2)CN1Cc1ccccc1, the Ki was 0.00126 µM. CC(c1ccccc1)N1CC2(CCN(CCc3c[nH]c4ccc(F)cc34)CC2)OC1=O (configuration not stated) showed a Ki of 0.02 µM. With O=C1OC2(CCN(CCc3c[nH]c4ccc(F)cc34)CC2)CN1C(=O)c1ccccc1 the Ki was 0.00251 µM. Cc1ccccc1CN1CC2(CCN(CCc3c[nH]c4ccc(F)cc34)CC2)OC1=O gave a Ki of 0.0126 µM. Compound CC(=O)N(Cc1ccccc1)CC1(O)CCN(CCc2c[nH]c3ccc(F)cc23)CC1 has a Ki of 0.00158 µM. Work on O=C1OC2(CCN(CCc3c[nH]c4ccc(F)cc34)CC2)CN1Cc1cccc(F)c1 yielded a Ki of 0.00158 µM. Cc1ccc(S(=O)(=O)N2CC3(CCN(CCc4c[nH]c5ccc(F)cc45)CC3)OC2=O)cc1 was tested, and the Ki was 0.00501 µM. Cc1ccc(CN2CC3(CCN(CCc4c[nH]c5ccc(F)cc45)CC3)OC2=O)cc1 showed a Ki of 0.001 µM. O=C1OC2(CCN(CCc3c[nH]c4ccc(F)cc34)CC2)CN1Cc1cccnc1 showed a Ki of 0.2 µM. Fc1ccc2[nH]cc(CCN3CCC4(CC3)CCN(Cc3ccccc3)C4)c2c1 gave a Ki of 0.00631 µM. O=C1OC2(CCN(CCc3c[nH]c4ccc(F)cc34)CC2)CN1Cc1ccc(Cl)cc1 showed a Ki of 0.01 µM. COC(=O)c1cccc(CN2CC3(CCN(CCc4c[nH]c5ccc(F)cc45)CC3)OC2=O)c1 showed a Ki of 0.0794 µM. O=C1OC2(CCN(CCc3c[nH]c4ccc(F)cc34)CC2)CN1Cc1ccc2ccccc2c1 showed a Ki of 0.02 µM. In the case of O=C1NC2(CCN(CCc3c[nH]c4ccc(F)cc34)CC2)CN1Cc1ccccc1, the Ki is reported as 0.00126 µM. O=C1OC2(CCN(CCc3c[nH]c4ccc(F)cc34)CC2)CN1Cc1cccc2ccccc12 gave a Ki of 0.00794 µM. Work on O=C1OC2(CCN(CCc3c[nH]c4ccc(F)cc34)CC2)CN1Cc1ccncc1 yielded a Ki of 0.1 µM. CN1CC2(CCN(CCc3c[nH]c4ccc(F)cc34)CC2)OC1=O was tested, and the Ki was 1.58 µM. N#Cc1ccc(CN2CC3(CCN(CCc4c[nH]c5ccc(F)cc45)CC3)OC2=O)cc1 showed a Ki of 0.1 µM. O=C1OC2(CCN(CCc3c[nH]c4ccc(F)cc34)CC2)CN1CCc1ccccc1 showed a Ki of 0.01 µM. With O=C1CC2(CCN(CCc3c[nH]c4ccc(F)cc34)CC2)CN1Cc1ccccc1 the Ki was 0.00126 µM. In the case of O=C1OC2(CCN(CCc3c[nH]c4ccc(F)cc34)CC2)CN1Cc1ccccn1, the Ki is reported as 0.0158 µM. Compound O=C1NC2(CCN(CCc3c[nH]c4ccc(F)cc34)CC2)C(=O)N1Cc1ccccc1 has a Ki of 0.126 µM. With OC1(CNCc2ccccc2)CCN(CCc2c[nH]c3ccc(F)cc23)CC1 the Ki was 0.1 µM. O=C1CC2(CCN(CCc3c[nH]c4ccc(F)cc34)CC2)NN1Cc1ccccc1 was tested, and the Ki was 0.01 µM.
